In patent publication US12576155B2, “Senolytic and antiinflammatory prodrugs and methods of use thereof” (priority 2019, dated 2026):

Columns and labels:
senescent cells = experiment: Flow cytometry of apoptosis (annexin V / propidium iodide) in senescent cells; assay type: cell-based; conditions: SSK1-treated senescent cells; after 36 hours of treatment
Description: Fibroblasts were digested into single cell suspensions by incubation with 0.25% trypsin-EDTA (Invitrogen) at 37° C. for 3-5 min or with accutase at 37° C. for 10 min. Cells were then stained with FITC annexin V and propidium iodide (PI) according to the manufacturer's protocol (FITC Annexin V Apoptosis Detection Kit I, BD Pharmingen™). For chondrocytes Annexin V/7-AAD analysis, the trypsinized live chondrocytes and floating cells were collected, centrifuged and washed with PBS. Cells were stained with the Annexin V Apoptosis Detection Kit (Biolegend, 640934) according to the manufacturer's instruction. Before the flow cytometric analysis, the precision count beads (Biolegend, 424902) were added to count the absolute live cell numbers. Flow cytometry was performed within one hour on an Aria III (BD Biosciences) or FACSVerse (BD Biosciences). Data were analyzed using FlowJo software (FlowJo LLC).

[1] = Serum biochemical test and routine blood analysis in old mice (toxicity); assay type: in vivo
Description: All drugs were mixed in 90% PBS, 5% Tween-80 (P1754, Sigma), and 5% polyethylene glycol (PEG) (81172, Sigma) and administered to mice by intraperitoneal (i.p.) injection. […] […] Gemcitabine was purchased from MCE.
For blood routine examination, 50 μl fresh blood was collected from each mouse and mixed with EDTA immediately. The blood samples were analyzed by Celltac Alpha MEK-6400 series hematology analyzers (Nihon Kohden, MEK-6400). For serum biochemical analysis, blood samples were collected, clotted for 2 hours at room temperature or overnight at 4° C., and then centrifuged (1000 g, 10 min) to gain serum. 200 μl serum was aliquot and analyzed of Alanine transaminase (ALT), aspartate transaminase (AST), uric acid (UA) and creatinine (CREA) by Chemistry Analyzer (Mindray, BS-350E).

[2] = tested on: SARS-CoV-2-infected rhesus macaques; experiment: SARS-CoV-2-infected rhesus macaques, late-stage SSK1 treatment (i.v. once a day 22 to 28 dpi); assay type: in vivo
Description: To evaluate the therapeutic effect of SSK1 on the recovery period of SARS-CoV-2 infection, we used nine rhesus macaques of three different ages as reported before (Lu et al., 2020). All the animals were inoculated with total 4.75 ml of 10^6 pfu/ml SARS-CoV-2 intratracheally (4.00 ml), intranasally (0.50 ml) and on conjunctiva (0.25 ml). The nine rhesus macaques were divided into three groups according to the treatments, which included vehicle (DMSO), low dosage (0.5 mg/kg) and high dosage (2.0 mg/kg) of SSK1, respectively. Each group randomly selected one young, one adult and one old monkey. The final grouping is presented as following: the vehicle-treated group, RM1 (young), RM2 (adult) and RM3 (old); 0.5 mg/kg SSK1-treated group, RM4 (young), RM5 (adult) and RM6 (old); 2.0 mg/kg SSK1-treated group, RM7 (young), RM8 (adult) and RM9 (old). […] For each group, vehicle (DMSO), low dosage SSK1 (0.5 mg/kg) and high dosage SSK1 (2.0 mg/kg) were administrated intravenously (i.v.) once a day from 22 to 28 dpi. Animals were anesthetized and clinical exams were performed daily. We recorded the body weight, anal temperature on each examination day and collected blood samples for hematology analysis as well as swabs form nasal, throat and rectal for virus quantitative detection. The monkeys were euthanized on 34, 35 and 36 dpi. We collected the bronchoalveolar lavage fluid (BALF) with 10 ml PBS (Gibco, Cat #21-040-CVC) and recorded the pathological changes of all organs. Tissue samples collected from all organs and the BALF were further analyzed.
100 mg/ml SSK1 dissolved in DMSO (Life Science, Cat #1087C114) was mixed in 95% PBS (Gibco, Cat #21-040-CVC), 5% Tween-80 (BioFroxx, Cat #1716) and administrated intravenously (i.v.) at the dosage of 0.5 mg/kg or 2.0 mg/kg to monkeys at the indicated time point (the injection finished within 5-10 minutes). DMSO mixed in 95% PBS (Gibco, Cat #21-040-CVC), 5% Tween-80 (BioFroxx, Cat #1716) was intravenously (i.v.) injected as vehicle.
The blood samples were collected from saphenous vein of hind limb of anaesthetized monkeys using 5 ml blood collection tube containing sodium citrate anti-coagulant for further analysis. For Complete Blood Count (CBC), Auto Hematology Analyzer (BC-5000 Vet, Mindray, China) was used. The white blood cells-related numbers and percentages of Neutrophil (Neu), Lymphocyte (Lym), Monocyte (Mon), Eosinophil (Eos), Basophil (Bas), and platelet-related items, platelet count (PLT), mean platelet volume (MPV), platelet distribution width (PDW), plateletcrit (PCT) were analyzed. For serum biochemical analysis, the blood was clotted for 30 min at 4° C. and centrifugated at 3,000×rpm for 15 min to obtain serum. The serum was used to analysis the alanine transaminase (ALT), aspartate transaminase (AST), alkaline phosphatase (ALP), uric acid (UA) and creatinine (CRE-E) by Chemistry Analyzer (Mindray, BS-350E).
The serum and BALF samples were collected for analysis of cytokine and chemokine. Concentration of granulocyte colony-stimulating factor (G-CSF), granulocyte-macrophage colony-stimulating factor (GM-CSF), interferon (IFN)-γ, interleukin (IL)-1 receptor antagonist, IL-1β, IL-2, IL-4, IL-5, IL-6, IL-8, IL-10, IL-12/23 (p40), IL-13, IL-15, IL-17, IL-18, monocyte chemotactic protein (MCP)-1, macrophage inflammatory protein (MIP)-1α, MIP-1β, soluble CD40-ligand (sCD40L), transforming growth factor (TGF)-α, tumor necrosis factor (TNF)-α, vascular endothelial growth factor (VEGF) were determined using the Non-Human Primate Cytokine MILLIPLEX map 23-plex kit (Millipore, Cat #PRCYTOMAG-40K) according to the manufacturer's instructions.
Autopsies of the rhesus macaques were performed according to a standard protocol. After the dissection, the major organs were grossly examined. The lung tissues were harvested, fixed in 10% neutral-buffered formalin solution, embedded in paraffin and 2 μm tissue sections were prepared. […]

CC(=O)OCC1O[C@@H](Oc2ccc(COC(=O)Nc3ccn([C@@H]4O[C@H](CO)C(O)C4(F)F)c(=O)n3)cc2[N+](=O)[O-])C(OC(C)=O)C(OC(C)=O)[C@H]1OC(C)=O (stereo partly drawn) [SSK1]
Apoptosis (annexin V / PI) (senescent cells): induced apoptosis in senescent cells
Systemic toxicities (serum biochemical test and routine blood analysis) ([1]; aged mice, high concentration (100 mg/kg) and high frequency, 5 weeks, 3 injections a week): no obvious systemic toxicities
Apoptosis of β-gal positive epithelial tubular cells in the kidney ([1]; following SSK1 treatment): only a few cells of this tubular cell population was shown to be undergoing apoptosis
System toxicity (serum biochemical test and routine blood analysis) ([1]; old mice, 0.5 mg/kg for 8 weeks, FIGS. 7A and B): no obvious system toxicity
Body weight change (32 dpi vs 22 dpi %) ([2]; RM4 young 1-year, 0.5 mg/kg): +25.00%
Body weight change (32 dpi vs 22 dpi %) ([2]; RM5 adult 5-year, 0.5 mg/kg): −3.45%
Body weight change (32 dpi vs 22 dpi %) ([2]; RM6 old 17-year, 0.5 mg/kg): −1.25%
Body weight change (32 dpi vs 22 dpi %) ([2]; RM7 young 1-year, 2.0 mg/kg): +12.50%
Body weight change (32 dpi vs 22 dpi %) ([2]; RM8 adult 5-year, 2.0 mg/kg): +9.68%
Body weight change (32 dpi vs 22 dpi %) ([2]; RM9 old 18-year, 2.0 mg/kg): +1.82%
Body weight loss ([2]; SSK1 0.5 or 2.0 mg/kg, 22 to 32 dpi): effectively prevented body weight loss
Pulmonary histology assessment (histologic lesions) ([2]; SSK1-treated animals vs vehicle): reduction in histologic lesions
Diseased phenotype of lung sections (thickened alveolar septum, edema, hemorrhage; H&E staining) ([2]; SSK1-treated group vs vehicle): greatly improved
Inflammatory cytokines in blood including IL-6, IL-8, IL-10, IL-15, TGF-α and MCP1 ([2]; SSK1-treated old monkeys, especially at 2 mg/kg): reduced at 28 dpi compared with 21 dpi
Serum level of IL-18 ([2]; all high-dosage (2.0 mg/kg) SSK1-treated monkeys): increased level
New lung lesions at necropsy ([2]; all six SSK1-treated monkeys): only found one exhibiting new lung lesions
Macrophage infiltration in lung (CD68 immunohistochemistry) ([2]; especially at high dosages, in the elderly group): significantly reduced macrophage infiltration
Adverse effects ([2]; treated monkeys): did not observe any adverse effects
